According to patent US11795481B2, “Processes for producing a fermentation product” (Novozymes A/S, priority 2017, dated 2023):

Test system: multi-strain LAB culture
Assay: SSF of control mash with 1% w/w infected mash, AA13 candidates, HPLC of organic acids and ethanol (Example 3)
Format: cell-based
Conditions: SSF 32° C. up to 24 hours, 20% DS; for % delta Ethanol / % delta Lactic Acid: vs No Treatment
Procedure: A control mash was prepared in-house with an industry relevant blend of AA369 and Protease Pfu using a Lab-O-Mat incubator for 2 hours at 85° C. and 36% DS to simulate typical industry conditions. The mash was then frozen prior to use in SSF. An infected mash was prepared by infecting the control mash with a multi-strain LAB culture grown in MRS. The bacteria in control mash was incubated overnight, and then frozen with 20% glycerol. For this experiment, 1% weight/weight of the infected mash was mixed into the control mash. This mimics an infection event at a large-scale ethanol facility. For SSF, all mash was prepared with 1000 ppm of urea to aid with yeast fermentation. All treatments were dosed with a baseline commercial glucoamylase GSA, while AA13 candidates were dosed at either 10 ug/g-DS or 50 ug/g-DS. SSF was performed at 5 g scale with 10 uL/g rehydrated Ethanol Red yeast at 32° C. for up to 24 hours at 20% DS. At the end of fermentation, samples were deactivated with 50 uL of 40% sulfuric acid and then centrifuged. The supernatant was filtered through a 0.2 μm filter and then measured for soluble carbohydrates and organic acids using an ion-exchange H-column on HPLC.

Acrostalagmus luteoalbus: Acrostalagmus luteoalbus AA13 polypeptide of SEQ ID NO: 129
average Ethanol (AA13 dose 10 ug/g-DS): 78.9 g/L | average Lactic Acid (AA13 dose 10 ug/g-DS): 3.0 g/L | % delta Ethanol (AA13 dose 10 ug/g-DS): 1.7% | % delta Lactic Acid (AA13 dose 10 ug/g-DS): −10.9% | average Ethanol (AA13 dose 50 ug/g-DS): 80.0 g/L | average Lactic Acid (AA13 dose 50 ug/g-DS): 2.9 g/L | % delta Ethanol (AA13 dose 50 ug/g-DS): 3.0% | % delta Lactic Acid (AA13 dose 50 ug/g-DS): −13.2%

Aspergillus insuetus: Aspergillus insuetus AA13 polypeptide of SEQ ID NO: 130
average Ethanol (AA13 dose 10 ug/g-DS): 76.7 g/L | average Lactic Acid (AA13 dose 10 ug/g-DS): 3.4 g/L | % delta Ethanol (AA13 dose 10 ug/g-DS): −1.2% | % delta Lactic Acid (AA13 dose 10 ug/g-DS): 1.7% | average Ethanol (AA13 dose 50 ug/g-DS): 77.2 g/L | average Lactic Acid (AA13 dose 50 ug/g-DS): 3.4 g/L | % delta Ethanol (AA13 dose 50 ug/g-DS): −0.6% | % delta Lactic Acid (AA13 dose 50 ug/g-DS): 2.1%

Cladosporium gossypiicola: Cladosporium gossypiicola AA13 polypeptide of SEQ ID NO: 131
average Ethanol (AA13 dose 10 ug/g-DS): 77.5 g/L | average Lactic Acid (AA13 dose 10 ug/g-DS): 3.3 g/L | % delta Ethanol (AA13 dose 10 ug/g-DS): −0.2% | % delta Lactic Acid (AA13 dose 10 ug/g-DS): −1.8% | average Ethanol (AA13 dose 50 ug/g-DS): 78.5 g/L | average Lactic Acid (AA13 dose 50 ug/g-DS): 3.2 g/L | % delta Ethanol (AA13 dose 50 ug/g-DS): 1.1% | % delta Lactic Acid (AA13 dose 50 ug/g-DS): −4.6%

Penicillin [reference compound]
average Ethanol (Penicillin dose 25 ppm): 80.1 g/L | average Lactic Acid (Penicillin dose 25 ppm): 1.2 g/L | % delta Ethanol (Penicillin dose 25 ppm): 3.1% | % delta Lactic Acid (Penicillin dose 25 ppm): −62.4%

Penicillium antarcticum: Penicillium antarcticum AA13 polypeptide of SEQ ID NO: 135
average Ethanol (AA13 dose 10 ug/g-DS): 76.4 g/L | average Lactic Acid (AA13 dose 10 ug/g-DS): 3.4 g/L | % delta Ethanol (AA13 dose 10 ug/g-DS): −1.6% | % delta Lactic Acid (AA13 dose 10 ug/g-DS): 2.2% | average Ethanol (AA13 dose 50 ug/g-DS): 76.2 g/L | average Lactic Acid (AA13 dose 50 ug/g-DS): 3.4 g/L | % delta Ethanol (AA13 dose 50 ug/g-DS): −1.8% | % delta Lactic Acid (AA13 dose 50 ug/g-DS): 3.0%

Penicillium concentricum: Penicillium concentricum AA13 polypeptide of SEQ ID NO: 136
average Ethanol (AA13 dose 10 ug/g-DS): 78.1 g/L | average Lactic Acid (AA13 dose 10 ug/g-DS): 3.3 g/L | % delta Ethanol (AA13 dose 10 ug/g-DS): 0.6% | % delta Lactic Acid (AA13 dose 10 ug/g-DS): −0.6% | average Ethanol (AA13 dose 50 ug/g-DS): 78.2 g/L | average Lactic Acid (AA13 dose 50 ug/g-DS): 3.2 g/L | % delta Ethanol (AA13 dose 50 ug/g-DS): 0.7% | % delta Lactic Acid (AA13 dose 50 ug/g-DS): −3.2%

Penicillium hoeksii: Penicillium hoeksii AA13 polypeptide of SEQ ID NO: 137
average Ethanol (AA13 dose 10 ug/g-DS): 78.1 g/L | average Lactic Acid (AA13 dose 10 ug/g-DS): 3.2 g/L | % delta Ethanol (AA13 dose 10 ug/g-DS): 0.6% | % delta Lactic Acid (AA13 dose 10 ug/g-DS): −2.8% | average Ethanol (AA13 dose 50 ug/g-DS): 79.1 g/L | average Lactic Acid (AA13 dose 50 ug/g-DS): 3.2 g/L | % delta Ethanol (AA13 dose 50 ug/g-DS): 1.9% | % delta Lactic Acid (AA13 dose 50 ug/g-DS): −4.8%

Penicillium paxilli: Penicillium paxiffi AA13 polypeptide of SEQ ID NO: 138
average Ethanol (AA13 dose 10 ug/g-DS): 77.8 g/L | average Lactic Acid (AA13 dose 10 ug/g-DS): 3.2 g/L | % delta Ethanol (AA13 dose 10 ug/g-DS): 0.2% | % delta Lactic Acid (AA13 dose 10 ug/g-DS): −4.9% | average Ethanol (AA13 dose 50 ug/g-DS): 78.1 g/L | average Lactic Acid (AA13 dose 50 ug/g-DS): 3.1 g/L | % delta Ethanol (AA13 dose 50 ug/g-DS): 0.5% | % delta Lactic Acid (AA13 dose 50 ug/g-DS): −5.7%
